From US20230085307A1, “PYRIDAZINONE COMPOUND AND HERBICIDE” (NISSAN CHEMICAL CORPORATION, priority 2019, published 2023)

How the values were obtained:
late watergrass = test: Test Example 1: herbicidal activity, application before weed generation under submerged conditions (Table 16, symbol A); format: in vivo, late watergrass (Echinochloa oryzicola); conditions: amount of applied herbicide 320 g/ha
Procedure, shortened: (§1)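 Submerged Wagner pots (alluvial soil, 4 cm water) sown with weed seeds and planted with 2.5-leaf rice seedlings; emulsifiable concentrate diluted in water applied to water surface on sowing day. Held in greenhouse at 25-30 °C; injury scored 0-5 by herbicidal rate after three weeks.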

oval-leafed pondweed = test: Test Example 1: herbicidal activity, application before weed generation under submerged conditions (Table 16, symbol C); format: in vivo, oval-leafed pondweed (Monochoria vaginalis); conditions: amount of applied herbicide 320 g/ha
Procedure, shortened: as §1

barnyard grass [1] = test: Test Example 3: herbicidal effect by foliage application, Wagner pot (Table 18, symbol H); format: in vivo, barnyard grass (Echinochloa crus-galli); conditions: 320 g/ha
Procedure, shortened: (§2)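 Plants were sown in alluvial soil held under 0.1–0.5 cm standing water and grown 14 days in a greenhouse at 25–30 °C. An emulsifiable formulation, water-diluted to the set dose, was then sprayed onto the foliage, and effects were scored three weeks later using previously defined criteria.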

Chinese sprangletop = test: Test Example 3: herbicidal effect by foliage application, Wagner pot (Table 18, symbol D); format: in vivo, chinese sprangletop (Leptochloa chinensis); conditions: 320 g/ha
Procedure, shortened: as §2

barnyard grass [2] = test: Test Example 4: herbicidal effect by soil treatment (Table 19, symbol H); format: in vivo, barnyard grass (Echinochloa crus-galli); conditions: amount of applied herbicide 320 g/ha
Procedure, shortened: (§3)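 Scoring uses the grading scale of an earlier test, three weeks post-application. Treatment consists of spraying a diluted emulsion formulation across the surface of sterilized diluvial soil in which seeds are buried near 1.5 cm deep; boxes are kept in a greenhouse between 25° C. and 30° C.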

Italian ryegrass [3] = test: Test Example 4: herbicidal effect by soil treatment (Table 19, symbol K); format: in vivo, Italian ryegrass (Lolium multiflorum); conditions: amount of applied herbicide 320 g/ha
Procedure, shortened: as §3

windgrass [4] = test: Test Example 4: herbicidal effect by soil treatment (Table 19, symbol L); format: in vivo, windgrass (Apera spica-venti); conditions: amount of applied herbicide 320 g/ha
Procedure, shortened: as §3

lambsquarters [5] = test: Test Example 4: herbicidal effect by soil treatment (Table 19, symbol O); format: in vivo, lambsquarters (Chenopodium album); conditions: amount of applied herbicide 320 g/ha
Procedure, shortened: as §3

persian speedwell [6] = test: Test Example 4: herbicidal effect by soil treatment (Table 19, symbol R); format: in vivo, Persian speedwell (Veronica persica); conditions: amount of applied herbicide 320 g/ha
Procedure, shortened: as §3

southern crabgrass = test: Test Example 5: herbicidal effect by foliage application, plastic box (Table 20, symbol F); format: in vivo, southern crabgrass (Digitaria ciliaris); conditions: foliage application, 320 g/ha, three weeks after application
Procedure, shortened: (§4)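 Post-emergence foliar test in sterilized diluvial soil. Compound applied as water-diluted emulsion at a predetermined rate to 14-day-old plants; evaluation at three weeks.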

green foxtail = test: Test Example 5: herbicidal effect by foliage application, plastic box (Table 20, symbol G); format: in vivo, green foxtail (Setaria viridis); conditions: foliage application, 320 g/ha, three weeks after application
Procedure, shortened: as §4

Italian ryegrass [7] = test: Test Example 5: herbicidal effect by foliage application, plastic box (Table 20, symbol K); format: in vivo, Italian ryegrass (Lolium multiflorum); conditions: foliage application, 320 g/ha, three weeks after application
Procedure, shortened: as §4

windgrass [8] = test: Test Example 5: herbicidal effect by foliage application, plastic box (Table 20, symbol L); format: in vivo, windgrass (Apera spica-venti); conditions: foliage application, 320 g/ha, three weeks after application
Procedure, shortened: as §4

velvetleaf = test: Test Example 5: herbicidal effect by foliage application, plastic box (Table 20, symbol M); format: in vivo, velvetleaf (Abutilon theophrasti); conditions: foliage application, 320 g/ha, three weeks after application
Procedure, shortened: as §4

lambsquarters [9] = test: Test Example 5: herbicidal effect by foliage application, plastic box (Table 20, symbol O); format: in vivo, lambsquarters (Chenopodium album); conditions: foliage application, 320 g/ha, three weeks after application
Procedure, shortened: as §4

persian speedwell [10] = test: Test Example 5: herbicidal effect by foliage application, plastic box (Table 20, symbol R); format: in vivo, Persian speedwell (Veronica persica); conditions: foliage application, 320 g/ha, three weeks after application
Procedure, shortened: as §4

| SMILES | Herbicidal effect, A: late watergrass (late watergrass) | Herbicidal effect, C: oval-leafed pondweed (oval-leafed pondweed) | herbicidal effect on barnyard grass (H) (barnyard grass [1]) | herbicidal effect on Chinese sprangletop (D) (Chinese sprangletop) | H: barnyard grass, herbicidal effect grade (barnyard grass [2]) | K: Italian ryegrass, herbicidal effect grade (Italian ryegrass [3]) | L: windgrass, herbicidal effect grade (windgrass [4]) | O: lambsquarters, herbicidal effect grade (lambsquarters [5]) | R: persian speedwell, herbicidal effect grade (persian speedwell [6]) | F: southern crabgrass, herbicidal effect grade (southern crabgrass) | G: green foxtail, herbicidal effect grade (green foxtail) | K: Italian ryegrass, herbicidal effect grade (Italian ryegrass [7]) | L: windgrass, herbicidal effect grade (windgrass [8]) | M: velvetleaf, herbicidal effect grade (velvetleaf) | O: lambsquarters, herbicidal effect grade (lambsquarters [9]) | R: persian speedwell, herbicidal effect grade (persian speedwell [10]) |
| --- | --- | --- | --- | --- | --- | --- | --- | --- | --- | --- | --- | --- | --- | --- | --- | --- |
| CCCOc1ccc2c(-c3c(O)c(C)nn(C)c3=O)c(-c3ccccc3OCC)sc2c1 [3-103] | 5 (Herbicidal rate of 90% or more (almost completely withered)) | 5 (Herbicidal rate of 90% or more (almost completely withered)) | 4 (Herbicidal rate of 70% or more and less than 90%) | 5 (Herbicidal rate of 90% or more (almost completely withered)) | 4 (Herbicidal rate of 70% or more and less than 90%) | 5 (Herbicidal rate of 90% or more (almost completely withered)) | 5 (Herbicidal rate of 90% or more (almost completely withered)) | 5 (Herbicidal rate of 90% or more (almost completely withered)) | 5 (Herbicidal rate of 90% or more (almost completely withered)) | 5 (Herbicidal rate of 90% or more (almost completely withered)) | 5 (Herbicidal rate of 90% or more (almost completely withered)) | 5 (Herbicidal rate of 90% or more (almost completely withered)) | 4 (Herbicidal rate of 70% or more and less than 90%) | 5 (Herbicidal rate of 90% or more (almost completely withered)) | 4 (Herbicidal rate of 70% or more and less than 90%) | 5 (Herbicidal rate of 90% or more (almost completely withered)) |
| C=CCOc1ccc2c(-c3c(O)c(C)nn(C)c3=O)c(-c3ccccc3OC)sc2c1 [3-111] | 5 (Herbicidal rate of 90% or more (almost completely withered)) | 5 (Herbicidal rate of 90% or more (almost completely withered)) | 5 (Herbicidal rate of 90% or more (almost completely withered)) | 3 (Herbicidal rate of 40% or more and less than 70%) | 4 (Herbicidal rate of 70% or more and less than 90%) | 5 (Herbicidal rate of 90% or more (almost completely withered)) | 0 (Herbicidal rate of 5% or less (almost no effect)) | 5 (Herbicidal rate of 90% or more (almost completely withered)) | 5 (Herbicidal rate of 90% or more (almost completely withered)) | 5 (Herbicidal rate of 90% or more (almost completely withered)) | 5 (Herbicidal rate of 90% or more (almost completely withered)) | 5 (Herbicidal rate of 90% or more (almost completely withered)) | 5 (Herbicidal rate of 90% or more (almost completely withered)) | 5 (Herbicidal rate of 90% or more (almost completely withered)) | 5 (Herbicidal rate of 90% or more (almost completely withered)) | 5 (Herbicidal rate of 90% or more (almost completely withered)) |
| COc1ccccc1-c1sc2cc(OCC(F)F)ccc2c1-c1c(O)c(C)nn(C)c1=O [3-114] | 5 (Herbicidal rate of 90% or more (almost completely withered)) | 5 (Herbicidal rate of 90% or more (almost completely withered)) | 5 (Herbicidal rate of 90% or more (almost completely withered)) | 4 (Herbicidal rate of 70% or more and less than 90%) | 5 (Herbicidal rate of 90% or more (almost completely withered)) | 5 (Herbicidal rate of 90% or more (almost completely withered)) | 5 (Herbicidal rate of 90% or more (almost completely withered)) | 5 (Herbicidal rate of 90% or more (almost completely withered)) | 5 (Herbicidal rate of 90% or more (almost completely withered)) | 5 (Herbicidal rate of 90% or more (almost completely withered)) | 5 (Herbicidal rate of 90% or more (almost completely withered)) | 5 (Herbicidal rate of 90% or more (almost completely withered)) | 5 (Herbicidal rate of 90% or more (almost completely withered)) | 5 (Herbicidal rate of 90% or more (almost completely withered)) | 5 (Herbicidal rate of 90% or more (almost completely withered)) | 5 (Herbicidal rate of 90% or more (almost completely withered)) |
| CCOc1ccccc1-c1sc2cc(OCCOC)ccc2c1-c1c(O)c(C)nn(C)c1=O [3-123] | 5 (Herbicidal rate of 90% or more (almost completely withered)) | 5 (Herbicidal rate of 90% or more (almost completely withered)) | 5 (Herbicidal rate of 90% or more (almost completely withered)) | 5 (Herbicidal rate of 90% or more (almost completely withered)) | 5 (Herbicidal rate of 90% or more (almost completely withered)) | 5 (Herbicidal rate of 90% or more (almost completely withered)) | 5 (Herbicidal rate of 90% or more (almost completely withered)) | 5 (Herbicidal rate of 90% or more (almost completely withered)) | 5 (Herbicidal rate of 90% or more (almost completely withered)) | 5 (Herbicidal rate of 90% or more (almost completely withered)) | 5 (Herbicidal rate of 90% or more (almost completely withered)) | 5 (Herbicidal rate of 90% or more (almost completely withered)) | 5 (Herbicidal rate of 90% or more (almost completely withered)) | 5 (Herbicidal rate of 90% or more (almost completely withered)) | 5 (Herbicidal rate of 90% or more (almost completely withered)) | 5 (Herbicidal rate of 90% or more (almost completely withered)) |
| COc1ccccc1-c1sc2cc(OCCSC)ccc2c1-c1c(O)c(C)nn(C)c1=O [3-125] | 3 (Herbicidal rate of 40% or more and less than 70%) | 1 (Herbicidal rate of 5% or more and less than 20%) | 5 (Herbicidal rate of 90% or more (almost completely withered)) | 3 (Herbicidal rate of 40% or more and less than 70%) | 0 (Herbicidal rate of 5% or less (almost no effect)) | 5 (Herbicidal rate of 90% or more (almost completely withered)) | 3 (Herbicidal rate of 40% or more and less than 70%) | 5 (Herbicidal rate of 90% or more (almost completely withered)) | 5 (Herbicidal rate of 90% or more (almost completely withered)) | 5 (Herbicidal rate of 90% or more (almost completely withered)) | 5 (Herbicidal rate of 90% or more (almost completely withered)) | 5 (Herbicidal rate of 90% or more (almost completely withered)) | 5 (Herbicidal rate of 90% or more (almost completely withered)) | 4 (Herbicidal rate of 70% or more and less than 90%) | 4 (Herbicidal rate of 70% or more and less than 90%) | 5 (Herbicidal rate of 90% or more (almost completely withered)) |
